Source: PubChem BioAssay AID1259426 (Fisher Drug Discovery Resource Center, 2018)
“And” between values parts separate entries of the source, which are not always exact repeats. Equal values may be shown once. The source made the active and inactive calls.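 How the source made its calls: active means EC50 under a set limit in control cells lacking the mosquito receptor, marking a fluorescence artifact; inactive means the rest.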

target: HEK293 Galpha15/GCaMP6s without NPYLR7, calcium fluorescence; test: calcium response in NPYLR7-null HEK293 cells, dose response, counter-screen for mosquito NPYLR7 agonist project, cell-based, HEK293 lacking NPYLR7 (AID 1259426);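 further: potency for a rise in fluorescence over baseline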

Row | Compound | EC50
1 | CC(=O)OC(C)C[N+](C)(C)C (stereo unspecified) | > 20 µM (inactive)
2 | C=CCN1C=CC(=CC=C(C#N)C#N)C=C1 | 2.17 µM
3 | O=[N+]([O-])c1c[n+]([O-])n(-c2cccc(Cl)c2)n1 | > 20 µM (inactive)
4 | Cc1ccc(C)c(C2C(C#N)C(=N)SC(=N)C2C#N)c1 (stereo unspecified) | 11.9 µM
5 | CN=c1nc(-c2ccccc2)n(-c2ccccc2)s1 | > 20 µM (inactive)
6 | CN(Cc1cnc2ccccc2n1)C(=O)C1CC2(CCNCC2)CN1 (stereo unspecified) | > 20 µM (inactive)
7 | O=C1C(=Cc2ccccc2O)NC(=S)N1Cc1ccco1 | 0.955 µM
8 | CCOC(=O)C1=C(C)NC(C)=C(C(=O)OCC)C1c1cc(Cl)ccc1OC(F)F | 14.7 µM
9 | CSc1nnc2c(n1)OC(c1ccc(OC(=O)c3ccc(Br)cc3)cc1)Nc1ccccc1-2 (stereo unspecified) | > 20 µM (inactive)
10 | CCOC=C(C#N)c1nc(C)cs1 | 2.43 µM
11 | CC(=O)Nc1sc2c(c1-c1nc3ccccc3s1)CCN(Cc1ccccc1)C2 | 3.18 µM
12 | Cc1ccc(CNC(=O)NC(c2ccc3c(c2)OCCCO3)C(C)C)cc1F (stereo unspecified) | > 20 µM (inactive)
13 | CN1C(=S)N(C2CCCCC2)C(=O)/C1=C\c1ccc2c(c1)OCO2 | > 20 µM (inactive)
14 | O=C1SC(Nc2ccc(Br)cc2)C(=O)N1c1ccccc1 (stereo unspecified) | 17.9 µM
15 | O=C1/C(=C/c2cccc(F)c2)Oc2c1ccc(O)c2CN1CCN(CCO)CC1 | 13.9 µM
16 | OCCN(CCO)c1nc(N2CCCCC2)c2nc(N(CCO)CCO)nc(N3CCCCC3)c2n1 | 3.58 µM and 1.94 µM
17 | O=C1OC(c2ccc(Cl)c([N+](=O)[O-])c2)=N/C1=C\c1cc2cc3c4c(c2oc1=O)CCCN4CCC3 | < 0.039 µM
18 | O=C1c2ccccc2C(=O)C1c1ccnc2ccccc12 | 17.3 µM
19 | COC(=O)c1cc(N)c(/C=C/c2cccs2)s1 | 0.577 µM
20 | COc1cc(Br)c(O)c(/C=N\n2c(C)n[nH]c2=S)c1 | > 20 µM (inactive)
21 | COc1ccc(NC(=O)CN2C(=O)c3ccccc3NC23CCN(C)CC3)cn1 | > 20 µM (inactive)
22 | O=C1/C(=C/c2cccc(Cl)c2)Oc2c1ccc(O)c2CN1CCN(CCO)CC1 | 11.8 µM

Row | Compound | EC50
23 | CCC(CO)[n+]1c(C)cc(C=C2Sc3ccccc3N2CC)cc1C (stereo unspecified) | 1.86 µM
24 | NCCNc1ccc2c3c(cccc13)C(=O)N(c1ccc(Cl)cc1)C2=O | 0.47 µM
25 | COc1cc(C=CC(=O)c2ccc3c(c2)OCCO3)cc(Br)c1O | 0.151 µM
26 | O=C(CNCc1ccccc1)N1CC(=O)N(c2cccc(Cl)c2)C1 | > 20 µM (inactive)
27 | CCCCN(CC(=O)Nc1c(-c2ccccc2)c(C)nn1-c1ccccc1C)S(=O)(=O)c1ccc(F)cc1 | > 20 µM (inactive)
28 | O=c1nc2n3ccc(-c4ccncc4)cc3ncc-2s1 | 18.3 µM
29 | Cc1cc2nc3c(=O)[nH]c(=O)nc-3n(CC(O)C(O)C(O)CO)c2cc1C (stereo unspecified) | < 0.039 µM
30 | CCn1c(=O)c2c(nc(/C=C/c3ccc(OC)c(OC)c3)n2C)n(CC)c1=O | > 20 µM (inactive)
31 | CC(C)N=c1c([N+](=O)[O-])nn(-c2ccc(Cl)cc2)n1O | > 20 µM (inactive)
32 | COc1cc(C=C2N=C(c3ccc4c(c3)OCO4)OC2=O)cc2c1OCCO2 | > 20 µM (inactive)
33 | N#CC(C#N)=C1C=C2C=C(N3CCCCC3)CCC2CC1 (stereo unspecified) | < 0.039 µM
34 | CCN=c1cc2oc3cc(NCC)c(C)cc3c(-c3ccccc3C(=O)OCC)c-2cc1C | 0.0953 µM
35 | Nc1ccc(Oc2cc(N)cc(Oc3ccccc3)c2)cc1 | 18.3 µM
36 | Nc1ncnc2c1ncn2[C@@H]1O[C@H](CO)[C@H](O)C1O (stereo partly specified) | 7.87 µM
37 | COc1cc(C=C(C#N)S(=O)(=O)c2ccc(Cl)cc2)cc(Cl)c1O | > 20 µM (inactive)
38 | CC(C)NC[C@@H](O)c1ccc(O)c(O)c1 | 1.37 µM
39 | O=c1[nH]c(CCl)nc2sc3c(c12)CCN(Cc1ccccc1)C3 | > 20 µM (inactive)
40 | CCOC(=O)c1nc2ccccc2nc1N1CCN(C(=O)N2CCOCC2)CC1 | > 20 µM (inactive)
41 | CCOC(=O)c1cc(O)c(C(=O)OCC)s1 | > 20 µM (inactive)
42 | NC(=O)CN1c2cccc3cccc(c23)S1(=O)=O | > 20 µM (inactive)
43 | N#Cc1cccc(C(=O)N2CCN(C(c3ccccc3)c3ccc(Br)cc3)CC2)c1 (stereo unspecified) | > 20 µM (inactive)
44 | COc1cc(OC)c(C2=NOC3(CC(=O)N(c4cccc(Cl)c4)C3=O)C2)cc1OC (stereo unspecified) | > 20 µM (inactive)

Row | Compound | EC50
45 | COc1cc(C=C2Oc3cc(O)ccc3C2=O)cc(OC)c1OC | 4.83 µM
46 | O=C(c1nccc2ccccc12)N1CCN(CC2CCCC2)CC1 | > 20 µM (inactive)
47 | CCOC(=O)C1CCCN(c2nc3nonc3nc2N2CCSCC2)C1 (stereo unspecified) | > 20 µM (inactive)
48 | Cc1ccc(-c2nc3nc(N)n(C)c(=O)c3[nH]c2=O)cc1 | > 20 µM (inactive)
49 | O=C(C1=NN(c2ccccc2)C2C(=O)N(c3ccccc3)C(=O)C12)c1ccccc1 (stereo unspecified) | > 20 µM (inactive)
50 | O=C(O)CSc1ccc2c3c(cccc13)C(=O)c1ccccc1-2 | 0.294 µM
51 | CCOc1cc(/C=C2\SC(=S)N(NC(=O)c3ccccc3O)C2=O)ccc1O | > 20 µM (inactive)
52 | Cc1nc(Sc2nnc3ccccn23)c2c3c(sc2n1)CCCC3 | > 20 µM (inactive)
53 | Cc1cccc(Oc2nc3ccccn3c(=O)c2/C=C(\C#N)c2nc3ccccc3s2)c1 | > 20 µM (inactive)
54 | N#C/C(=C\c1ccc(O)c(O)c1)C(=O)Nc1ccccc1 | > 20 µM (inactive)
55 | CS(=O)(=O)c1ccc(-c2cccc3c2OC(CNC(=O)c2cc[n+]([O-])cc2)C3)cc1 (stereo unspecified) | > 20 µM (inactive)
56 | CCOC(=O)c1ccc(N=c2oc3cc(O)ccc3cc2-c2nc3ccccc3[nH]2)cc1 | 0.204 µM
57 | COc1ccc(NC[C@@H]2C=C(C)[C@H](Cc3nnc(C)o3)C[C@H]2C(C)C)cn1 | 13.3 µM
58 | COc1cccc(CN2COc3ccc4c(c3C2)O/C(=C\c2ccncc2)C4=O)c1 | 11.1 µM
59 | COc1cccc(-n2c(O)c(C=Nc3cc(OC)ccc3OC)c3ccccc3c2=O)c1 | > 20 µM (inactive)
60 | O=C1SC(Nc2ccc(I)cc2)C(=O)N1c1ccccc1 (stereo unspecified) | 18.1 µM
61 | CC(C)OC(=O)C(C(=O)C(F)(F)F)c1cc(NS(=O)(=O)c2ccc(Cl)cc2)ccc1O (stereo unspecified) | > 20 µM (inactive)
62 | CCc1ccc(/C=C2\Oc3c(ccc4c3CN(C3CCS(=O)(=O)C3)CO4)C2=O)cc1 (stereo unspecified) | 10.6 µM
63 | C[n+]1c2cc(N)ccc2cc2ccc(N)cc21 | < 0.039 µM
64 | CNC(=O)c1cnc(/C=C/c2csc(-c3ccsc3)n2)[nH]c1=O | > 20 µM (inactive)
65 | O=C1CCCC2Nc3ncnc(Cl)c3OC12 (stereo unspecified) | 6.38 µM
66 | CN(C)c1ccc(/C=C2/SC(=S)N(CC(=O)O)C2=O)cc1Br | 0.346 µM

Row | Compound | EC50
67 | CCCS(=O)(=O)N1CCN=C1SCc1ccccc1C | > 20 µM (inactive)
68 | CCC(C)n1cc(/C=C2/C(=O)NC(=O)N(c3ccc4c(c3)OCO4)C2=O)c2ccccc21 (stereo unspecified) | > 20 µM (inactive)
69 | CCN1CCc2c(sc(NC(=O)c3ccccc3)c2-c2nc3ccccc3s2)C1 | > 20 µM (inactive)
70 | Cc1ccc(CN(Cc2ccc(F)cc2)C(=O)CNCCN2CCOCC2)s1 | > 20 µM (inactive)
71 | CCCCC(CC)CN=C(N)NC(N)=NCCCCCCN=C(N)NC(N)=NCC(CC)CCCC (stereo unspecified) | > 20 µM (inactive)
72 | CC(C)(C)NCC(O)c1ccc(O)c(CO)c1 (stereo unspecified) | > 20 µM (inactive)
73 | O=C(O)CN1C(=O)/C(=C\c2cc([N+](=O)[O-])cc(Br)c2O)SC1=S | 1.07 µM
74 | C=CCC1=CC(=Cc2c(N)n3nc(Cc4cccs4)sc3nc2=O)C=C(OC)C1=O | 2.43 µM
75 | CSc1ccc(C2CC(c3cccs3)=Nc3ncnn32)cc1 (stereo unspecified) | 1.4 µM
76 | COCCCN(Cc1ccc(C(C)(C)C)cc1)Cc1cccn1Cc1cccc(C)c1 | > 20 µM (inactive)
77 | O=C(CC(c1cccc([N+](=O)[O-])c1)c1c[nH]c2ccccc12)NC1CC1 (stereo unspecified) | > 20 µM (inactive)
78 | COc1cc(/C=C/c2nc3ccccc3o2)cc(Cl)c1O | 1.7 µM
79 | CC(C(=O)O)N1C(=O)/C(=C\c2ccc(O)cc2)SC1=S (stereo unspecified) | 12.1 µM
80 | O=C(O)c1ccccc1-c1c2cc(Br)c(=O)cc-2oc2[c]([Hg])c(O)c(Br)cc12 | < 0.039 µM
81 | COc1cc(/C=C(/C#N)c2nc3cc(Cl)ccc3s2)ccc1O | > 20 µM (inactive)
82 | O=C(O)c1csc(CSc2nnc(-c3ccncc3)n2-c2cccc(C(F)(F)F)c2)n1 | > 20 µM (inactive)
83 | O=C(c1cnn(-c2ccccc2)n1)N1CCCC(COCc2ccccc2)C1 (stereo unspecified) | 0.513 µM
84 | COc1ccc(C(=O)C=Cc2cc(Br)c(O)c(OC)c2)cc1F | < 0.039 µM
85 | COc1cc(/C=C(\C#N)C(=O)c2ccc(O)c(O)c2)cc(I)c1O | 6.08 µM
86 | CCN(CC)C1=CC2=CC(=C(C#N)C#N)CCC2CC1 (stereo unspecified) | < 0.039 µM
87 | FC(F)(F)c1ccc(-c2nc3ccc(Cl)cn3c2NCc2ccccc2)cc1 | > 20 µM (inactive)
88 | CCOC(=O)c1c(-c2ccccc2)csc1N=Cc1nc(-c2ccco2)oc1O | > 20 µM (inactive)

Row | Compound | EC50
89 | CCCC[n+]1c(C)cc(C=C2Sc3ccccc3N2C)cc1C | > 20 µM (inactive)
90 | CC(=O)Oc1ccc(Cn2c(C)c(C(=O)NCc3ccc(C#N)cc3)sc2=O)cc1 | > 20 µM (inactive)
91 | CSc1nc(N)c2ncn([C@@H]3O[C@H](COP(=O)(O)OP(=O)(O)OP(=O)(O)O)[C@H](O)C3O)c2n1 (stereo partly specified) | 0.401 µM
92 | COc1cc(/C=C2\C(=N)N3N=CSC3=NC2=O)cc(Br)c1OC(=O)c1ccco1 | 10 µM
93 | N#C/C(=C/c1ccc(N2CCCCC2)o1)c1cccc(F)c1 | > 20 µM (inactive)
94 | N#CC(C#N)=C1C=C2C=C(N3CCN(Cc4ccccc4)CC3)CCC2CC1 (stereo unspecified) | > 20 µM (inactive)
95 | N#CC1C(=N)Oc2cc(N)ccc2C1c1c(Cl)cccc1Cl (stereo unspecified) | > 20 µM (inactive)
96 | Cc1ccc(C(=O)C=Cc2ccc(N(C)C)cc2)o1 | < 0.039 µM
97 | O=C(O)CN1C(=O)/C(=C\c2ccc(O)cc2)SC1=S | 13.3 µM
98 | CCOc1cc(/C=C2/Oc3cc(O)ccc3C2=O)cc(Cl)c1OCC(=O)N(C)C | > 20 µM (inactive)
99 | Cc1ccc(NC2C=CS(=O)(=O)C2)cc1C (stereo unspecified) | > 20 µM (inactive)
100 | COc1cc(C=C(C#N)S(=O)(=O)c2cc(Br)ccc2Br)ccc1O | 19.5 µM
101 | CC(=O)NCCc1ccc(O)c(O)c1 | 0.0722 µM
102 | Cc1ccc2nc(Cn3cnc4c(Cl)cc(Cl)cc4c3=O)cc(=O)n2c1 | > 20 µM (inactive)
103 | CCN(CC)Cc1c(O)cc(C)c2c1O/C(=C\c1cc3ccccc3o1)C2=O | 9.1 µM
104 | CC(C)NC[C@H](O)c1ccc(O)c(O)c1 | < 0.039 µM
105 | N#CC(C#N)=Cc1ccc(O)c(O)c1 | > 20 µM (inactive)
106 | N#CC1C(=N)Oc2cc(O)ccc2C1c1ccncc1 (stereo unspecified) | 7.22 µM
